Consider 13 compounds from patent US10485845B2, “Neuronal pain pathway” (THE TRUSTEES OF COLUMBIA UNIVERSITY IN THE CITY OF NEW YORK, priority 2005, dated 2019).

Entries after “also recorded” stand apart in the source; their conditions may differ.

Test [1] deals with PKG. The following applies: see Setyawan et al., 1999; read-out: inhibitory of PKG at concentration of; cited from earlier work.
Another test deals with apPKG. In words: In vitro kinase assay of recombinant apPKG (32P transfer from ATP to BPDEtide). The test is classed as biochemical, Aplysia. Conditions: 100 nM 8-Br-cGMP, BPDEtide substrate. The procedure: FIG. 2A-C. apPKG is a type-1 PKG. […] Activity caused by autophosphorylation was subtracted using a peptide control reaction (see Materials and Methods). Note that the kinase activity was inhibited in the presence of 10 μM PKG inhibitor Rp-8-pCPT-cGMPS (RP-G). B, Kinase activity of active recombinant apPKG (25 ng) and bovine PKG type-Iα (bPKG Iα (50 ng) in the presence of four type-I PKG peptide substrates: peptide A, RKISASGP (SEQ ID NO:21); B, RKISASEFDRPLR (SEQ ID NO:22; BPDEtide); and D, RKRSRAE (SEQ ID NO:23) H2Btide). Peptide C, QKRPRRKDTP (SEQ ID NO:24), is a type-II PKG substrate. C, apPKG phosphorylates recombinant VASP at serine-239. Purified recombinant VASP-GST (0.5 μg) was incubated with active apPKG (100 ng) or the recombinant bovine PKG (50 ng), or in the kinase buffer alone, at room temperature for 20 min. After SDS-PAGE, a Western blot was probed with an anti-phospho-VASP (Ser 239) (p-VASP 5239) antibody.
These studies establish apPKG as a member of the soluble type-I family of PKGs.

Test [2] relates to Aplysia SNs. In words: Induction of LTH in axotomized SNs in vitro (electrophysiology). In kind it is cell-based, Aplysia californica. The following applies: for decrease in spike threshold / increase in repetitive firing: 10 μM, SNs grown in presence of inhibitor, third day in vitro. The procedure: FIG. 6A-D. Inhibiting NOS, sGC, or apPKG prevents the induction of LTH in SNs in vitro. SNs were removed from the cluster and grown in vitro in the presence of Rp-8-pCPT-cGMPS (RpcGMPS), Rp-8-pCPT-cAMPS (RpcAMPS), or ODQ (all 10 μM). Other SNs removed at the same time were not exposed to any inhibitors as controls (C). A, B, On the third day in vitro, 12 SNs exposed to Rp-cGMPS, Rp-cAMPS, or ODQ, and 12 control SNs were impaled with a microelectrode to assess repetitive firing in response to stimulation at three test currents (A) and to determine spike threshold (B). We examined the cells on the third day, and not later, to avoid more prolonged exposure to the drugs. […] Error bars indicate SEM, and the asterisks indicate significance (p<0.0001 in each case). […] C, Detection of nNOS mRNA in single SNs by RT-PCR. Fragments of appropriate lengths were amplified with primer sets for apnNOS, sensorin A, and the neuron-specific isoform of actin from five separate sets of samples from SNs in vivo (0) or after 16 hr in vitro. The size of the synthesized fragments detected by ethidium bromide staining on 2% agarose gels were identical with those predicted from the known sequences in the database. In addition, the PCR products were verified by DNA sequence analysis. Finally, there was no amplification in the absence of reverse transcriptase, indicating the RNA preparations were not contaminated by genomic DNA (bottom panel). Positions of molecular markers are indicated on the left. D, Effects of the NOS inhibitors on LTH. L-Thiocitrulline (50 μM) and L-NAME (1 mM) were used as described above. n, Number of SNs. The data were normalized to the average excitability of control cells in the same preparation. The asterisk indicates significance (p<0.001), comparing LTH with and without inhibitor by ANOVA and Dunnett's test. Error bars indicate SEM.
Medium was changed every 2 d. Drugs were washed out 1 hr before electrophysiological tests.
Before the start of each recording, the hemolymph was replaced with a 1:1 mixture of artificial seawater and culture medium (without hemolymph; pH 7.6). Standard techniques were used for intracellular stimulation and recording (Ambron et al., 1996). The soma spike threshold was measured with a standard series of 20 msec depolarizing pulses. Repetitive firing was quantified by counting the number of spikes evoked by a series of 2 sec depolarizing pulses at 1, 2, 3, 4, and 5 nA, or 1 sec depolarizing pulses at 2.5 times the current for the 20 msec threshold. Spike amplitude was measured from baseline to the peak of the action potential, and spike duration was the breadth of the action potential at one-half of its maximal height.
To investigate whether the appearance of the LTH requires apPKG activity, the SNs were removed from the ganglion in the presence of either the soluble guanylyl cyclase (sGC) inhibitor ODQ, the PKG inhibitor Rp-8-pCPT-cGMPS, or the PKA inhibitor Rp-cAMPS. The latter was used because PKA has properties in common with PKG (Scott, 1991; Francis and Corbin, 1994) and has been implicated in various forms of synaptic plasticity in Aplysia SNs (Ghirardi et al., 1992; Byrne and Kandel, 1996; Bedi et al., 1998; Muller and Carew, 1998; Chain et al., 1999; Liao et al., 1999; Sutton and Carew, 2000; Antonov et al., 2003). The cells were subsequently allowed to regenerate in the presence of the inhibitors in vitro, and on the third day, their electrophysiological properties were compared with those of SNs that were removed from the same ganglia at the same time, but that had not been exposed to a drug. […] Neither spike broadening nor amplitude were evaluated in these experiments.

Test [3] has as its system apMAPK. In words: Axotomy-induced apMAPK nuclear translocation in SNs (D8 antibody immunostaining, confocal microscopy). In kind it is cell-based, Aplysia. Conditions: 10 μM, SNs in vitro; for nuclear staining of apMAPK: fixed on the third day. The procedure:
Equal amounts of Alexa Fluor 546-labeled BSA, apPKG, or ERK1 were microinjected into the cytoplasm of SNs after 2 d in vitro. The neurites were then severed with a fine needle to elicit an injury response, and 30 min later, the cells were examined by confocal microscopy. […] Scale bar, 20 μm. B, Rp-8-pCPT-cGMPs inhibits axotomy-induced apMAPK nuclear translocation. SNs untreated as controls, and those exposed to either 10 μM Rp-8-pCPT-cGMPs (Rp-cGMPs) or Rp-cAMPs for 2 d in vitro, were immunostained with D8 antibody to localize apMAPK. Top, Representative examples of 2 μm optical sections of control SNs and those exposed to Rp-8-pCPT-cGMPs or Rp-cAMPs. Scale bar, 20 μm. Bottom, Histogram of the mean value of nuclear MAPK immunoreactivity. The staining intensity was determined by a person who was blind to the treatment that the cells received. n, Number of cells for each treatment. Asterisk indicates significant difference from control (p<0.05 by ANOVA and Newman-Keuls tests).
Ganglia, nerve, or cultured cells were fixed with 4% paraformaldehyde in PBS, pH 7.4. The primary antibody was diluted in TBS supplemented with 0.1-0.5% Triton X-100 in TBS and 5% goat serum, and incubated overnight at 4° C. After several washes, an Alexa Fluor 594- or 488-conjugated secondary antibody (Molecular Probes, Eugene, Oreg.) was applied for 1 hr at room temperature. Subsequently, the cells were visualized by confocal fluorescence microscopy (LSM510 confocalmicroscope; Zeiss, Oberkochen, Germany), and images were collected.
The inability of apPKG to enter the nucleus of Aplysia SNs is consistent with the idea that it contributes to the induction of LTH by promoting the nuclear import of apMAPK. If so, then inhibiting the apPKG pathway should block the axotomy-induced entry of apMAPK into the nucleus. Therefore, SNs were exposed in vitro either to the PKG blocker, Rp-8-pCPTcGMPS, or the PKA blocker, Rp-cAMPS, under the conditions that induce LTH (FIG. 6A). On the third day, the cells were fixed, permeabilized, and exposed to antibody D8 to visualize ap-MAPK. […]

Test [4] concerns PKG. In words: Blocking of PKG activity at the site of sciatic nerve injury in rat. Conditions: nerve injured in presence of inhibitor; four hours after injury. In kind it is in vivo. The procedure:
FIG. 9. Relative PKG activity at various positions of the sciatic nerve relative to point of injury, shown schematically above the graph.
The experiment was carried out as follows. A rat was anesthetized using a standard protocol and the sciatic nerve was exposed and injured in either the absence or the presence of RP-G, or an inhibitor of PKA, Rp-8-pCPT-cAMPS, (“RP-A”). Four hours later, the nerve was sectioned as shown in the schematic above the graph in FIG. 9, and each segment was assayed for PKG activity. In the absence of inhibitor (black bars), active PKG had been transported toward the cell bodies and was enriched in P3.

Test [5] relates to Aplysia SNs. Nature of the test: Induction of LTH in axotomized SNs in vitro (electrophysiology). The test is classed as cell-based, Aplysia californica. Conditions: inhibitor added to 2-d-cultured SN.
Test [6] deals with apMAPK.
Method: Top, Left, Twenty-five micrograms of a pleural ganglia lysate collected at the indicated times after p5-p9 nerve crush were resolved by SDS-PAGE, and a Western blot was probed with Ab pTpYmapk to detect active ERK-MAPKs. […] All of the values were normalized to levels of total apMAPK. […] Each of the following experiments (B-E) was repeated twice at least, and representative results are shown. […] Left, Pleural neurons were removed from a noninjured animal, a lysate was prepared, and 25 μg was incubated with 100 ng of active apPKG protein or with 1 μM 8-Br-cGMP in the presence or absence of 10 μM U0126. Right, Twenty-five micrograms of axoplasm was incubated with active apPKG as above. Active apMAPK was detected by immunoblotting with Ab pTpYmapk.
ERK activity was assayed as described (Sung et al., 2001). Briefly, proteins and 500 μM ATP were incubated in kinase buffer for 20 min at room temperature. The reaction mixtures were resolved on 10% SDS polyacrylamide gels and subjected to Western blotting with antibody (Ab)pTpYmapk, AbpYmapk, AbpTmapk, or AbpElk1.
In the next test the test system is rats. Conditions: intrathecal, 10 and 60 minutes later; cited from earlier work.
Test [7] deals with Aplysia SNs. Conditions: SNs exposed to drug in vitro. As for the experimental part: SNs were isolated from the pleural ganglia of 50-80 gm animals and were plated on poly-L-lysine-coated dishes containing L15 medium and 50% hemolymph (Dagan and Levitan, 1981; Glanzman etal., 1989). Cultures were maintained at 18° C. for up to 7 d. Medium was changed every 2 d. Drugs were washed out 1 hr before electrophysiological tests.

In the case of 10″ deoxybalanol, the IC50 with PKG [1] was 31 nM.

14″ decarboxy balanol: the IC50 with PKG [1] is 19 nM.

As for `Nc1nc2c(nc(Sc3ccc(Cl)cc3)n2C2OC3COP(O)(=S)OC3C2O)c(=O)[nH]1` (single isomer, unassigned) [Rp-8-pCPT-cGMPS, guanosine 3′,5′-cyclic monophosphorothioate, 8-(4-chlorophenylthio)-, Rp isomer], at apPKG (10 μM inhibitor), the “kinase activity of purified inactive recombinant apPKG” value is listed as “inhibited”. In addition, in the test with Aplysia SNs [2], the “decrease in spike threshold” value is given as “prevented” and the “increase in repetitive firing” value is reported as “prevented”. In addition, in the test on Aplysia SNs [2] (listed as Rp-cGMPS), the “decrease in spike threshold” value is listed as “significantly prevented” and the “increase in repetitive firing” value is reported as “significantly reduced”. Further, in the test with apMAPK [3], the “reduction in the level of apMAPK in the nucleus of the SNs” value is “nearly threefold reduction” and the “nuclear staining of apMAPK” value was “dramatic reduction”. Moreover, the “PKG activity in sciatic nerve segments” value in the test with PKG [4] is on record as “abolished the activity”. Also, in the test on Aplysia SNs [5], the appearance of excitability entry is listed as “Neither Rp-8-pCPT-cGMPS nor ODQ inhibited”.

As to `Nc1ncnc2c1ncn2[C@@H]1O[C@@H]2COP(O)(=S)O[C@H]2[C@H]1O` (single isomer, unassigned) [Rp-cAMPS, adenosine 3′,5′-cyclic monophosphorothioate, Rp isomer], in the test on Aplysia SNs [2], the “decrease in spike threshold” value is on record as “no significant effect; also recorded: not significant” and the “increase in repetitive firing” value is on record as “no significant effect”. Besides, the “nuclear staining of apMAPK” value in the test on apMAPK [3] is “same levels”.

On to `Nc1nc2c(nc(Br)n2[C@@H]2O[C@@H]3COP(=O)(O)O[C@H]3[C@H]2O)c(=O)[nH]1` [8-Br-cGMP], for which the “activation of inactive apPKG” value in the test on apPKG is “activated”. Besides, the “level of active apMAPK” value with apMAPK [6] (1 μM 8-Br-cGMP added to 25 μg lysate) was “markedly enhanced”.

On to `COC(=O)[C@@H](N)CCCN=C(N)N[N+](=O)[O-].Cl` [L-NAME, N^G-nitro-L-arginine methyl ester hydochioride], for which the “LTH (maximum firing relative to untreated controls)” value in the test on Aplysia SNs [2] (1 mM, SNs in vitro) was “reduced LTH”.

For the compound `NC(=S)NCCC[C@H](N)C(=O)O` [L-Thiocitrulline, L-thiocitrulline], in the test on Aplysia SNs [2] (50 μM, SNs in vitro), the “maximum firing relative to untreated controls (LTH)” value is recorded as “markedly reduced”.

On to `O=c1onc2cnc3ccccc3n12` [ODQ, 1-H[1,2,4]oxadiazolo[4,3-a]quinoxalin-1-one], for which, in the test on Aplysia SNs [2], the “decrease in spike threshold” value is “significantly prevented” and the “increase in repetitive firing” value is on record as “prevented; also recorded: significantly reduced”. Further, in the test with Aplysia SNs [5], the appearance of excitability result is recorded as “Neither Rp-8-pCPT-cGMPS nor ODQ inhibited”.

`Nc1ncnc2c1nc(Sc1ccc(Cl)cc1)n2C1OC2COP(O)(=S)OC2C1O` (stereo not drawn) [RP-A, Rp-8-pCPT-cAMPS]: the “PKG activity in sciatic nerve segments” value in the test with PKG [4] is reported as “did not change this pattern”.

Take `CCN(CC)CC.Nc1nc2c(nc(Sc3ccc(Cl)cc3)n2[C@@H]2O[C@@H]3COP(O)(=S)O[C@H]3[C@H]2O)c(=O)[nH]1` (stereo partly drawn) [Rp-8-[4-chlorophenyl)thio-cGMPS triethylamine]: in the test on rats, the antinociception entry is recorded as “significant antinociception”.

On to `N#CC(=C(/N)Sc1ccccc1N)/C(C#N)=C(\N)Sc1ccccc1N` [U0126], for which the “extent or pattern of neurite growth” value with Aplysia SNs [7] was “severe growth defects”. Also, the “block of apMAPK activation by active apPKG or 8-Br-cGMP” value in the test with apMAPK [6] (10 μM U0126) is “not blocked”.

Consider `O=C(NC1CNCCCC1OC(=O)c1cc(O)c(C(=O)c2c(O)cccc2C(=O)O)c(O)c1)c1ccc(O)cc1` (stereo not drawn) [balanol], for which, in the test on PKG [1], the IC50 is 1.6 nM.

In the case of balanol-7R, the IC50 with PKG [1] was 291 nM.
